Reference: patent US20100115666A1, “Transcriptional Repressors of Cytokinin Signaling and Their Use” (FREIE UNIVERSITÄT BERLIN, priority 2006, published 2010)

How the values were obtained:
detached leaves = assay: Chlorophyll retention assay in detached leaves; assay type: in vivo, Arabidopsis thaliana; conditions: wild type leaves, 0.1 μM BA, 10 d dark
Method: (b) Quantification of chlorophyll retention by cytokinin. […] Three independent plates with five leaves per plate were examined for each concentration. Two chlorophyll measurements were taken per plate. The chlorophyll content was determined spectrophotometrically as described in Example 3.5. Error bars represent SD (n=15). The chlorophyll retention assay was performed as described by ([…] et al., 2006). Either the sixth or the seventh leaf was detached from 24-days-old in vitro grown seedlings and floated on distilled water supplemented with 0, 0.01, 0.1, 0.5, 1.0 or 5.0 μM BA in 0.1% DMSO in small Petri dishes for 10 d at RT in the dark. Three replicates of each genotype, each consisting of five leaves were taken for measurement. Chlorophyll was extracted with methanol for 24 h in the dark. The amount of chlorophyll was measured with a spectrophotometer, normalized to fresh weight, and the chlorophyll content was calculated as described (Porra et al., 1989).

Arabidopsis seedlings = assay: Cytokinin sensitivity of roots (root elongation, lateral root formation); assay type: in vivo, Arabidopsis thaliana
Method: ([…] plants are less sensitive to cytokinin inhibition of root elongation. Root elongation was measured for each line between 4 and 9 DAG. The root elongation of each line is expressed as percentage of its DMSO control. Results shown for each line represent means from at least three independent replicates. ([…] plants are less sensitive to cytokinin inhibition of lateral root formation. The number of lateral roots was determined 9 DAG. Error bars represent SD (n>15). Arabidopsis seeds were grown on vertical plates containing different concentration of BA ranging from 0.01 μM to 1.0 mM. 0.1% dimethyl sulfoxide (DMSO) was included as vehicle control. The primary root lengths were marked on day four and nine after germination. Photographs were taken with a digital camera (Nikon Coolpix 8800) and root lengths were determined using Scion Image program version beta 4.02 (www.scioncorp.com). The number of lateral roots emerging from the epidermis of the primary root was counted under a microscope […]. The experiments were performed using three independent replicates and 15 seedlings in each replicate. To investigate the cytokinin response in roots, seedlings of wild type and the 35[…] lines were grown on media containing increasing amounts of cytokinin. […] The relative difference in root length increased with increasing cytokinin concentrations (FIG. 7a). […]

ARR6:GUS reporter gene = assay: Protoplast transactivation assay (ARR6:GUS reporter); assay type: cell-based, Arabidopsis
Method: The ARR6:GUS reporter construct and a 35S:GUS construct without any effector plasmid were used as controls. Protoplasts were co-transfected with the ARR6:GUS reporter and an effector plasmid expressing ARR1, ARR1-SRDX or both effector plasmids simultaneously. […] Variations in transformation efficiencies were normalized by using a 35S:NAN reporter gene construct. The mean values and SD of four independent transfection assays were calculated and shown as relative GUS/NAN activity units.
Protoplast isolation and transformation was carried out according to the method described by Hwang and Sheen (Hwang and Sheen, 2001). For isolation of mesophyll protoplasts 4-5 weeks old rosette leaves were used. Transformation of protoplasts was mediated by 40% PEG solution. […] For the transactivation assays, 9 μg of the ARR6: GUS reporter plasmid and 14 μg of each effector plasmid carrying 35S:ARR1 and 35S:ARR1-SRDX were used. For normalization 3 μg of a plasmid harboring the 35S:NAN gene (Kirby and Kavanagh, 2002) was added. Both GUS and NAN enzyme assays were performed according to Kirbay and Kavanagh (Kirby and Kavanagh, 2002). The ratios of GUS and NAN activities were calculated as relative GUS/NAN activity units.

c1ccc(CNc2ncnc3[nH]cnc23)cc1 [BA]
chlorophyll retention (detached leaves): strongly increased chlorophyll retention | root length reduction compared to control (Arabidopsis seedlings; wild type plants, 1 μM BA): 75% | lateral root formation (Arabidopsis seedlings; wild type, 0.1 μM BA): unable to produce lateral roots

C/C(=C\CNc1ncnc2nc[nH]c12)CO [cytokinin, trans-zeatin]
induction of the reporter gene expression compared to the non-induced condition (ARR6:GUS reporter gene; ARR6:GUS reporter without effector, 500 nM trans-zeatin, 16 h): more than threefold induction | further increase of the GUS activity on addition of cytokinin (ARR6:GUS reporter gene; with 35S:ARR1 effector, 500 nM trans-zeatin): twofold increase

B1: ARR1: Arabidopsis thaliana B-type response regulator ARR1 (SEQ ID NO: 12), expressed under the 35S promoter (protein, listed as Arabidopsis thaliana)
chain: MMNPSHGRGLGSAGGSSSGRNQGGGGETVVEMFPSGLRVLVVDDDPTCLMILERMLRTCLYEVTKCNRAEMALSLLRKNKHGFDIVISDVHMPDMDGFKLLEHVGLEMDLPVIMMSADDSKSVVLKGVTHGAVDYLIKPVRMEALKNIWQHVVRKRRSEWSVPEHSGSIEETGERQQQQHRGGGGGAAVSGGEDAVDDNSSSVNEGNNWRSSSRKRKDEEGEEQGDDKDEDASNLKKPRVVWSVELHQQFVAAVNQLGVEKAVPKKILELMNVPGLTRENVASHLQKYRIYLRRLGGVSQHQGNLNNSFMTGQDASFGPLSTLNGFDLQALAVTGQLPAQSLAQLQAAGLGRPAMVSKSGLPVSSIVDERSIFSFDNTKTRFGEGLGHHGQQPQQQPQMNLLHGVPTGLQQQLPMGNRMSIQQQIAAVRAGNSVQNNGMLMPLAGQQSLPRGPPPMLTSSQSSIRQPMLSNRISERSGFSGRNNIPESSRVLPTSYTNLTTQHSSSSMPYNNFQPELPVNSFPLASAPGISVPVRKATSYQEEVNSSEAGFTTPSYDMFTTRQNDWDLRNIGIAFDSHQDSESAAFSASEAYSSSSMSRHNTTVAATEHGRNHQQPPSGMVQHHQVYADGNGGSVRVKSERVATDTATMAFHEQYSNQEDLMSALLKQV
GUS activity (ARR6:GUS reporter gene; co-transfection with ARR1 under 35S promoter, absence of cytokinin): strong increase in GUS activity
